# Measured values as given in patent US7507792B2, “MDA-7 proteins and methods of use thereof” (The Trustees of Columbia University In The City of New York, priority 1993, dated 2009).
# Columns and labels:
# H0-1 cells = test: Northern blotting analysis of steady-state mRNA levels; format: cell-based, human; conditions: FIG. 1 concentrations
# Procedure: Steady-state levels of specific mRNAs were determined by Northern blotting analysis of total RNA probed with appropriate ^32P-labeled gene probes as described previously (14-16). RNAs were analyzed from cells treated with inducer for 24 hours, treated for 24 hours with inducer followed by growth for 72 hours in the absence of inducer, or treated continuously for 96 hours with the inducer. The concentration of inducing compounds used were the same as those used for growth studies. The effect of conditioned medium on gene expression changes was determined by treating H0-1 cells for 24 hours with a 1:2 dilution of conditioned medium (equal volumes of conditioned medium and DMEM supplemented with 10% fetal bovine serum (DMEM-10) or for 96 hours with a 1:4 dilution of conditioned medium (1 vol. of conditioned medium to 3 vol. of DMEM-10). The probes used in the present study were specific for β-actin (17), γ-actin (17), c-jun (18), c-myc (19), fibronectin (20), gro/MGSA (21), HLA Class I antigen (22), HLA Class II antigen (HLA-DRβ) (22), α5 integrin (23), β1 integrin (24), ISG-15 (25), ISG-54 (25), jun-B (26), and tenascin (27). Northern blots were also probed with a ^32P-labeled GAPDH gene (15) to verify similar mRNA expression under the various experimental conditions. Following hybridization, the filters were washed and exposed for autoradiography.
# [1] = test system: MDA-6 (WAF1/CIP1/SDI1) protein; test: Immunoprecipitation of MDA-6 (WAF1/CIP1/SDI1) protein in HL-60 cells; format: cell-based, human; conditions: TPA, DMSO (1%) or RA (1 μM), 12, 24, 48 and 72 h tested
# Procedure: Immunoprecipitation analyses were performed as described previously (Duigou et al., 1991; Su et al. 1993). Logarithmically growing HL-60 cells were either untreated or treated for 12, 24, 48 or 72 h with TPA ([…]), RA (1 μM) or DMSO (1%) in 10-cm plates. Cultures were starved of methionine for 1 h at 37° C. in methionine-free medium, cells were concentrated by pelleting and labeled for 4 h at 37° C. in 1 ml of the same medium with 100 μCi of [^35S] (NEN; Express ^35S). After labeling, the cells were washed twice with ice-cold phosphate-buffered saline and lysed for 1 h on ice by the addition of RIPC (20 mM Tris-base, pH 7.5, 500 mM NaCl, 0.05% Nonidet P-40, 100 μg/ml phenylmethylsulfonyl fluoride and 0.02% sodium azide). The lysate was clarified by centrifugation in an Eppendorf microfuge at 10,000×g for 10 min at 4° C. Samples containing 4×10^6 counts were incubated with 2 μg of WAF1/CIP1 (C-19) (Santa Cruz Biotechnology) (or MDA-6 peptide-derived) rabbit polyclonal IgG or actin monoclonal antibody (Oncogene Sciences) with rocking at 4° C. for 24 h. The next day, 30 μl (packed volume) of protein G-agarose (Oncogene Sciences) was added to each tube, and incubation with rocking at 4° C. continued for another hour. The protein G pellets were then washed five times with 1 ml of ice-cold RIPC:phosphate-buffered saline (1:1, v/v). Thirty μl of sodium dodecyl sulfate-polyacrylamide gel electrophoresis buffer were added to the pellets, and the sample was heated at 87° C. for 3 min. The samples were loaded onto an 10% polyacrylamide gel and run overnight at 40 V. The gel contained Rainbow protein markers (Amersham) for sizing. Gels were fixed with 10% acetic acid plus 10% methanol for 30 min, incubated in DMSO for 30 min, incubated with 10% 2,5-diphenyloxazole in DMSO for 30 min, washed three times with cold water (10 min each), dried and exposed to film.
SMILES,HLA Class I antigen gene expression (H0-1 cells; 96 h),fibronectin expression (H0-1 cells; 96 h),induction of gro/MGSA gene expression (H0-1 cells; 96 h),tenascin expression (H0-1 cells; 96 h),c-jun and jun-B expression (H0-1 cells; 96 hours),c-myc expression (H0-1 cells; 96 hours),α5 integrin expression (H0-1 cells; 96 h),β-actin and γ-actin expression (H0-1 cells; 96 h),time of treatment at which MDA-6 protein is detected [1] [h]
"C=C(C)[C@@]12O[C@@]3(c4ccccc4)O[C@@H]1[C@@H]1[C@@H]4O[C@]4(CO)[C@@H](O)[C@]4(O)C(=O)C(C)=C[C@H]4[C@@]1(O3)[C@H](C)[C@H]2OC(=O)/C=C/C=C/c1ccccc1 [MEZ, mezerein]",did not significantly alter,less potent,did not,decreased tenascin expression,increase,downregulated,,,
"CC1=C(/C=C/C(C)=C/C=C/C(C)=C/C(=O)O)C(C)(C)CCC1 [RA, trans-retinoic acid]",did not significantly alter,least effective,did not,decreased tenascin expression,,,reduced,did not significantly alter,12
"CCCCCCCCCCCCCC(=O)O[C@@H]1[C@@H](C)[C@@]2(O)[C@@H](C=C(CO)C[C@]3(O)C(=O)C(C)=C[C@@H]23)[C@@H]2C(C)(C)[C@]12OC(C)=O [TPA, 12-O-tetradecanoyl-phorbol-13-acetate]",,,,,,,,,12
